Test results as given in BindingDB's records for doi:10.1016/j.bmcl.2011.04.103 (University of Strasburg, 2011).
pIC50: −log10 of the molar value.

Test: Inhibition of N-terminal SHH activated pathway in mouse C3H10T1/2 cells assessed as SAG-induced cell differentiation by alkaline phosphatase assay

Point of comparison: COc1cccc(CN(C(=O)CC(C)(C)C)[C@H]2C[C@@H](C(=O)N3CCNCC3)N(Cc3ccc4c(c3)OCO4)C2)c1 [N-((3S,5S)-1-(benzo[d][1,3]dioxol-5-ylmethyl)-5-(piperazine-1-carbonyl)pyrrolidin-3-yl)-N-(3-methoxybenzyl)-3,3-dimethylbutanamide], pIC50 6.52. Against it:
- CC1=C2C[C@H]3[C@@H](CC=C4C[C@@H](O)CC[C@@]43C)[C@@H]2CC[C@]12O[C@@H]1C[C@H](C)CN[C@H]1[C@H]2C — 0.30 log units lower, 6.22
- C[C@H]([C@@H]1CCCCN1)[C@H]1CC[C@H]2[C@@H]3CC=C4C[C@@H](O)CC[C@]4(C)[C@H]3CC[C@]12C — 1.03 log units lower, 5.49
